Source: patent US6759547B1, “5,6,7,8-tetrahydronaphthalen-2-yl 2,6-difluoroheptatrienoic acid derivatives having serum glucose reducing activity” (Allergan, Inc., priority 2003, dated 2004)

Key:
RXRβ = target: T1, RXRβ (Homo sapiens, UniProt P28702); assay: holoreceptor transactivation assay, RXRβ; assay type: cell-based; details: for RXR Trans. efficacy β: efficacy as a percentage compared to the standard compound; for EC50: holoreceptor assay, read-out: RXR Trans. EC50 β; for efficacy in activating RXRβ compared with RXRα and RXRγ: transactivation, comparison of subtypes
T1 construct: expressed in transfected cells
T1 sequence (P28702 1-533): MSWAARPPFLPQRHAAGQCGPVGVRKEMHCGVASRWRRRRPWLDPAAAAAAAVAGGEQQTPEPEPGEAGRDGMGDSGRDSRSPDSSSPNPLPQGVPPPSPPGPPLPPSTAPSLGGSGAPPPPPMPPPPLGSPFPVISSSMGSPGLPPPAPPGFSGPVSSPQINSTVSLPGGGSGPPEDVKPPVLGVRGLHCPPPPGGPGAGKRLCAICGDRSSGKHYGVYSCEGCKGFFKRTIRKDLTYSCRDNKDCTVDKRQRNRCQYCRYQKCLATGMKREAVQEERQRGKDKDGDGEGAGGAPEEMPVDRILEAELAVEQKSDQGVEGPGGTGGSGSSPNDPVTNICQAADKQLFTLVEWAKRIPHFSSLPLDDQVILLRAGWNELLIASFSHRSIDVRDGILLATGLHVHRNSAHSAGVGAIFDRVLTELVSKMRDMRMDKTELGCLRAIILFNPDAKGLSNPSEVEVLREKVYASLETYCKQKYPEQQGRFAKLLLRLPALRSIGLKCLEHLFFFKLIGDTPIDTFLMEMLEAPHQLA
Source text: (§1) Particularly, the transactivation data pertaining to activation of the RAR receptors were obtained in the chimeric assay, and the transactivation data pertaining to the activation of RXR receptors were obtained in the holoreceptor assay.

RXRα [1] = target: T2, RXRα (Homo sapiens, UniProt P19793); assay: holoreceptor transactivation assay, RXRα; assay type: cell-based; details: for RXR Trans. efficacy α: efficacy as a percentage compared to the standard compound; for EC50: holoreceptor assay, read-out: RXR Trans. EC50 α
T2 construct: expressed in transfected cells
T2 sequence (P19793 1-462): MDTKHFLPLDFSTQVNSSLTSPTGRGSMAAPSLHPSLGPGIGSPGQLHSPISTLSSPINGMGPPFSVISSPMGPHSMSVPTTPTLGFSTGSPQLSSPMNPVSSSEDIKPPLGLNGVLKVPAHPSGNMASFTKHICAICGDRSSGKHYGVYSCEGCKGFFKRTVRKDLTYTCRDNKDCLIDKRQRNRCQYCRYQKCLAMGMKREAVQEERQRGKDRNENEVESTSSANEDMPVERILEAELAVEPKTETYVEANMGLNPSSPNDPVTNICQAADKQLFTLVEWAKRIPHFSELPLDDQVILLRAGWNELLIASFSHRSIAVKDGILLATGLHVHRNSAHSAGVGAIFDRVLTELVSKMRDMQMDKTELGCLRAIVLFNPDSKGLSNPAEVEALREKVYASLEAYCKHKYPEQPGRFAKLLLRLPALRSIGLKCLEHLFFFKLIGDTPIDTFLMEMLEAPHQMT
Source text: as §1

RXRα [2] = target: T2, RXRα; assay: ligand binding assay, RXRα; details: read-out: RXR Bind K1 α
Source text: (§2) The results obtained in this assay are expressed in EC50 numbers, as they are also in the chimeric receptor transactivation assay. The results of the ligand binding assay are expressed in Ki numbers.

RARα = target: T3, RARα (Homo sapiens, UniProt P10276); assay: ligand binding assay, RARα; details: read-out: RAR Bind. K1 α
T3 sequence (P10276 1-462): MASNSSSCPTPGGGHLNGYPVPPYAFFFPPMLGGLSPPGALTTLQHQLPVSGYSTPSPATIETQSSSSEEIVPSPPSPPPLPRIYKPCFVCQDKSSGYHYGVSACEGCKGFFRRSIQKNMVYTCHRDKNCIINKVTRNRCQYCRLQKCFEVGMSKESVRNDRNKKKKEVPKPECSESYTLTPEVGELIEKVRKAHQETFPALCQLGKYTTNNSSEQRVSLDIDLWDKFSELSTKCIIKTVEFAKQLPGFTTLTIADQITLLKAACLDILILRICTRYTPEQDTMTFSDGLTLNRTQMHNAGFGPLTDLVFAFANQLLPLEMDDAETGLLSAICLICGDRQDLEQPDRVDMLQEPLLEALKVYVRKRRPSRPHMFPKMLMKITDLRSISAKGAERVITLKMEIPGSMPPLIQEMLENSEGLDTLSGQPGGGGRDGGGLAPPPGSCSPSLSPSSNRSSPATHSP
Source text: as §2

RARβ [3] = target: T4, RARβ (Homo sapiens, UniProt P10826); assay: ligand binding assay, RARβ; details: read-out: RAR Bind. K1 β
T4 sequence (P10826 1-455): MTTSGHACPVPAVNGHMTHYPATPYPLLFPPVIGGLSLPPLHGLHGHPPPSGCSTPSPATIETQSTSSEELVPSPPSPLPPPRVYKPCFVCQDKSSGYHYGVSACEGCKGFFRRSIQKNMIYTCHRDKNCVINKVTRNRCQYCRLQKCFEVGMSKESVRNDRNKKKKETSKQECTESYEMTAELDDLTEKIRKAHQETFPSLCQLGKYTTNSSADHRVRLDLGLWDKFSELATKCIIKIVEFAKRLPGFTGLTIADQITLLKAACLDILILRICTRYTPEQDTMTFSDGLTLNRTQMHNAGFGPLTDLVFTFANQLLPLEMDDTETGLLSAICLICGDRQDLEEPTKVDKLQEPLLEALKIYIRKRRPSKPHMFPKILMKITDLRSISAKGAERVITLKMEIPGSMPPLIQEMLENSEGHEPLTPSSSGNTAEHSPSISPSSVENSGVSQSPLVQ
Source text: as §2

RARβ [4] = target: T5, RARβ (Homo sapiens, UniProt P10826); assay: chimeric receptor transactivation assay, RARβ; assay type: cell-based; details: for EC50: chimeric assay, read-out: RAR Trans. EC50 β; for RAR Trans. efficacy β: efficacy as a percentage compared to the standard compound
T5 sequence (P10826 183-417 limits assumed): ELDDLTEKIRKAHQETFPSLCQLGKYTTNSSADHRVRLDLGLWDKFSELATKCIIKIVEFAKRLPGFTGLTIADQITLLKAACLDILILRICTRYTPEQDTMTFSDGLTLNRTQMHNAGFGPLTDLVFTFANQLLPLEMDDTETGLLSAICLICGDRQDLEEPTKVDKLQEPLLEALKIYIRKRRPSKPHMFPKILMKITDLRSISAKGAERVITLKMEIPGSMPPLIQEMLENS
Source text: One such assay is a chimeric receptor transactivation assay which tests for agonist-like activity in the RARα RARβ and RARγ receptor subtypes, and which is based on work published by Feigner P. L. and Holm M. (1989) Focus, 112 is described in detail in U.S. Pat. No. 5,455,265. The specification of U.S. Pat. No. 5,455,265 is hereby expressly incorporated by reference.
as §1, with “Table 1 discloses the activity of certain exemplary compounds of the invention in the above-described receptor transactivation and binding assays. Particularly,” for “Particularly,”

RXR Trans. efficacy β (RXRβ) [%] | EC50 (RXRβ) [nM] | RXR Trans. efficacy α (RXRα [1]) [%] | EC50 (RXRα [1]) [nM] | Ki (RXRα [2]) [nM] | Ki (RARα) [nM] | Ki (RARβ [3]) [nM] | EC50 (RARβ [4]) [nM] | RAR Trans. efficacy β (RARβ [4]) [%] | SMILES | efficacy in activating RXRβ compared with RXRα and RXRγ (RXRβ)
43 | 32 | 30 | 4 | 5 | 930 | 1800 | 95 | 14 | CCOc1cc2c(cc1\C(CC)=C(F)/C=C/C(C)=C(\F)C(=O)O)C(C)(C)CCC2(C)C [Compound 27, (2Z,4E,6E)-7-(3-Ethoxy-5,5,8,8-tetramethyl-5,6,7,8-tetrahydro-naphthalen-2-yl)-2,6-difluoro-3-methyl-nona-2,4,6-trienoic acid] | significantly more effective in activating the RXRβ subtype
45 | 91 | 41 | 9 | 12 | 260 | 590 | 170 | 24 | CC/C(=C(F)/C=C/C(C)=C(\F)C(=O)O)c1cc2c(cc1OCOC)C(C)(C)CCC2(C)C [Compound 21, (2Z,4E,6E)-2,6-Difluoro-7-(3-methoxymethoxy-5,5,8,8-tetramethyl-5,6,7,8-tetrahydro-naphthalen-2-yl)-3-methyl-nona-2,4,6-trienoic acid] | significantly more effective in activating the RXRβ subtype
24 | 43 | 7 | 3 | 11 | 1800 | 1720 | > 1000 | 25 | CCCOc1cc2c(cc1\C(C)=C(F)/C=C/C(C)=C(\F)C(=O)O)C(C)(C)CCC2(C)C [Compound 11, (2Z,4E,6E)-2,6-Difluoro-3-methyl-7-(5,5,8,8-tetramethyl-3-propoxy-5,6,7,8-tetrahydro-naphthalen-2-yl)-octa-2,4,6-trienoic acid] | significantly more effective in activating the RXRβ subtype
